US9181239B2, “Pyridopyrimidinone inhibitors of kinases” (AbbVie Inc., priority 2011, dated 2015)

Target: T1, Wee1 kinase (Homo sapiens, UniProt P30291)
T1 construct: purchased Carnabio 05-177
Assay: Wee1 time-resolved fluorescence equilibrium binding assay (probe displacement)
Settings: GST-tagged-Wee1 kinase 2 nM, fluorescent probe 300 nM, 1 hour incubation; read-out: Wee-1 binding (Ki nM)
Experimental: Wee1 kinase was assayed using a time-resolved fluorescence equilibrium binding assay monitoring displacement of a rapidly reversible Oregon Green-labeled ATP-competitive kinase probe (N-(2-(2-(2-(4-(4-(5-chloro-4-(2-(1-hydroxycyclobutyl)thiazol-5-yl)-1H-pyrrolo[2,3-b]pyridin-2-yl)phenyl)piperazin-1-yl)ethoxy)ethoxy)ethyl)-2′,7′-difluoro-3′,6′-dihydroxy-3-oxo-3H-spiro[isobenzofuran-1,9′-xanthene]-5-carboxamide) by competitive Wee1 inhibitors.

T1 sequence (P30291 whole entry): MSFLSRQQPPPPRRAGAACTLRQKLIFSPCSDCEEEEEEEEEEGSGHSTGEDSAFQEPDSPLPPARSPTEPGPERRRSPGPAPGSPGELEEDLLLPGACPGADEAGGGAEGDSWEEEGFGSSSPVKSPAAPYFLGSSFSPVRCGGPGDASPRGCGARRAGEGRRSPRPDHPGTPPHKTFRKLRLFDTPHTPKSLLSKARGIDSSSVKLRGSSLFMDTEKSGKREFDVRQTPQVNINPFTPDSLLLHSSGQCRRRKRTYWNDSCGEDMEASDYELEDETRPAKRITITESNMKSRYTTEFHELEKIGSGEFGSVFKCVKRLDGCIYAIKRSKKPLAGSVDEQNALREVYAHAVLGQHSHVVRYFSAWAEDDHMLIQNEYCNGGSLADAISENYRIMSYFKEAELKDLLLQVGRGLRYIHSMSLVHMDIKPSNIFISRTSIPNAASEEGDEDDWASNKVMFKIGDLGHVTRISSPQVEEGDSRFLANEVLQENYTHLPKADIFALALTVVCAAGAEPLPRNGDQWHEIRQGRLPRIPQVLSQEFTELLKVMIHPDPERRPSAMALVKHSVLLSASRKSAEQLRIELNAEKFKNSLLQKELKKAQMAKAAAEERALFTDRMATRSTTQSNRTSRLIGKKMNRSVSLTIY

Row | Ki [nM] | SMILES
1 | 2.8 | Cn1cc(-c2c(F)cccc2Cl)c(=O)c2cnc(Nc3ccc(NC4CCNCC4)cc3)nc21 [Example 73, 6-(2-chloro-6-fluorophenyl)-8-methyl-2-{[4-(piperidin-4-ylamino)phenyl]amino}pyrido[2,3-d]pyrimidin-5(8H)-one]
2 | 1.3 | Cn1cc(-c2c(F)cccc2Cl)c(=O)c2cnc(Nc3ccc4c(c3)CCNC4)nc21 [Example 75, 6-(2-chloro-6-fluorophenyl)-8-methyl-2-(1,2,3,4-tetrahydroisoquinolin-6-ylamino)pyrido[2,3-d]pyrimidin-5(8H)-one]
3 | 9.5 | CN1CCN(c2ccc(Nc3ncc4c(=O)c(-c5ccccc5Cl)c[nH]c4n3)cc2)CC1 [Example 1, 6-(2-chlorophenyl)-2-{[4-(4-methylpiperazin-1-yl)phenyl]amino}pyrido[2,3-d]pyrimidin-5(8H)-one]
4 | 0.7 | COC(=O)c1cc(Nc2ncc3c(=O)c(-c4c(Cl)cccc4Cl)cn(C)c3n2)ccc1N1CCN(C)CC1 [Example 71, methyl 5-{[6-(2,6-dichlorophenyl)-8-methyl-5-oxo-5,8-dihydropyrido[2,3-d]pyrimidin-2-yl]amino}-2-(4-methylpiperazin-1-yl)benzoate]
5 | 1.2 | Cn1cc(-c2c(F)cccc2Cl)c(=O)c2cnc(Nc3ccc4c(c3)CNCC4)nc21 [Example 74, 6-(2-chloro-6-fluorophenyl)-8-methyl-2-(1,2,3,4-tetrahydroisoquinolin-7-ylamino)pyrido[2,3-d]pyrimidin-5(8H)-one]
6 | 37 | CN1CCN(c2ccc(Nc3ncc4c(=O)c(-c5ccccc5Cl)c(-c5ccccc5)[nH]c4n3)cc2)CC1 [Example 3, 6-(2-chlorophenyl)-2-{[4-(4-methylpiperazin-1-yl)phenyl]amino}-7-phenylpyrido[2,3-d]pyrimidin-5(8H)-one]
7 | 1.7 | Cn1cc(-c2c(Cl)cccc2Cl)c(=O)c2cnc(Nc3ccc(N4CCOCC4)cc3)nc21 [Example 48, 6-(2,6-dichlorophenyl)-8-methyl-2-{[4-(morpholin-4-yl)phenyl]amino}pyrido[2,3-d]pyrimidin-5(8H)-one]
8 | 2.4 | CN1CCN(c2ccc(Nc3ncc4c(=O)c(-c5ccccc5Cl)cn(-c5ccccc5)c4n3)cc2)CC1 [Example 2, 6-(2-chlorophenyl)-2-{[4-(4-methylpiperazin-1-yl)phenyl]amino}-8-phenylpyrido[2,3-d]pyrimidin-5(8H)-one]
9 | < 1 | CN1CCN(c2ccc(Nc3ncc4c(=O)c(-c5c(Cl)cccc5Cl)cn(C5CC5)c4n3)cc2)CC1 [Example 10, 8-cyclopropyl-6-(2,6-dichlorophenyl)-2-{[4-(4-methylpiperazin-1-yl)phenyl]amino}pyrido[2,3-d]pyrimidin-5(8H)-one]
10 | 0.2 | CN1Cc2cc(Nc3ncc4c(=O)c(-c5c(Cl)cccc5Cl)cn(C)c4n3)ccc2C1(C)C [Example 60, 6-(2,6-dichlorophenyl)-8-methyl-2-[(1,1,2-trimethyl-2,3-dihydro-1H-isoindol-5-yl)amino]pyrido[2,3-d]pyrimidin-5(8H)-one]
11 | 0.4 | Cn1cc(-c2c(Cl)cccc2Cl)c(=O)c2cnc(Nc3ccc4c(c3)CNCC4)nc21 [Example 51, 6-(2,6-dichlorophenyl)-8-methyl-2-(1,2,3,4-tetrahydroisoquinolin-7-ylamino)pyrido[2,3-d]pyrimidin-5(8H)-one]
12 | 0.4 | CN1CCC(Oc2ccc(Nc3ncc4c(=O)c(-c5c(Cl)cccc5Cl)cn(C)c4n3)cc2)CC1 [Example 68, 6-(2,6-dichlorophenyl)-8-methyl-2-({4-[(1-methylpiperidin-4-yl)oxy]phenyl}amino)pyrido[2,3-d]pyrimidin-5(8H)-one]
13 | 2.4 | CN1CCN(c2ccc(Nc3ncc4c(=O)c(-c5c(F)cccc5Cl)cn(C5CC5)c4n3)cc2)CC1 [Example 37, 6-(2-chloro-6-fluorophenyl)-8-cyclopropyl-2-{[4-(4-methylpiperazin-1-yl)phenyl]amino}pyrido[2,3-d]pyrimidin-5(8H)-one]
14 | 0.2 | CN1Cc2cc(Nc3ncc4c(=O)c(-c5c(Cl)cccc5Cl)c[nH]c4n3)ccc2C(C)(C)C1 [Example 42, 6-(2,6-dichlorophenyl)-2-[(2,4,4-trimethyl-1,2,3,4-tetrahydroisoquinolin-7-yl)amino]pyrido[2,3-d]pyrimidin-5(8H)-one]
15 | 3 | CN1CCN(c2ccc(Nc3ncc4c(=O)c(-c5c(Cl)cccc5Cl)cn(CC(F)(F)F)c4n3)cc2)CC1 [Example 11, 6-(2,6-dichlorophenyl)-2-{[4-(4-methylpiperazin-1-yl)phenyl]amino}-8-(2,2,2-trifluoroethyl)pyrido[2,3-d]pyrimidin-5(8H)-one]
16 | 0.6 | CCn1cc(-c2c(Cl)cccc2Cl)c(=O)c2cnc(Nc3ccc(N4CCN(C)CC4)cc3)nc21 [Example 31, 6-(2,6-dichlorophenyl)-8-ethyl-2-{[4-(4-methylpiperazin-1-yl)phenyl]amino}pyrido[2,3-d]pyrimidin-5(8H)-one]
17 | 180 | Cn1cc(-c2c(Cl)cccc2Cl)c(=O)c2cnc(N)nc21 [Example 45, 2-amino-6-(2,6-dichlorophenyl)-8-methylpyrido[2,3-d]pyrimidin-5(8H)-one]
18 | 0.2 | CN1Cc2cc(Nc3ncc4c(=O)c(-c5c(F)cccc5Cl)cn(C)c4n3)ccc2C1(C)C [Example 70, 6-(2-chloro-6-fluorophenyl)-8-methyl-2-[(1,1,2-trimethyl-2,3-dihydro-1H-isoindol-5-yl)amino]pyrido[2,3-d]pyrimidin-5(8H)-one]
19 | 0.3 | Cn1cc(-c2c(Cl)cccc2Cl)c(=O)c2cnc(Nc3ccc4c(c3)CNCC43CC3)nc21 [Example 21, 6-(2,6-dichlorophenyl)-2-(2′,3′-dihydro-1′H-spiro[cyclopropane-1,4′-isoquinolin]-7′-ylamino)-8-methylpyrido[2,3-d]pyrimidin-5(8H)-one]
20 | 0.6 | Cn1cc(-c2c(Cl)cccc2Cl)c(=O)c2cnc(Nc3ccc4c(c3)CNCC4(C)C)nc21 [Example 47, 6-(2,6-dichlorophenyl)-2-[(4,4-dimethyl-1,2,3,4-tetrahydroisoquinolin-7-yl)amino]-8-methylpyrido[2,3-d]pyrimidin-5(8H)-one]
21 | 20 | CN1CCN(c2ccc(Nc3ncc4c(=O)c(-c5c(Cl)cccc5Cl)cn(CC(C)(C)O)c4n3)cc2)CC1 [Example 16, 6-(2,6-dichlorophenyl)-8-(2-hydroxy-2-methylpropyl)-2-{[4-(4-methylpiperazin-1-yl)phenyl]amino}pyrido[2,3-d]pyrimidin-5(8H)-one]
22 | 1.2 | CN(C)C1Cc2ccc(Nc3ncc4c(=O)c(-c5c(Cl)cccc5Cl)cn(C5CC5)c4n3)cc2C1 (stereo not drawn) [Example 25, 8-cyclopropyl-6-(2,6-dichlorophenyl)-2-{[2-(dimethylamino)-2,3-dihydro-1H-inden-5-yl]amino}pyrido[2,3-d]pyrimidin-5(8H)-one]
23 | 0.8 | O=c1c(-c2c(Cl)cccc2Cl)cn(C2CC2)c2nc(Nc3ccc4c(c3)CNCC43CC3)ncc12 [Example 24, 8-cyclopropyl-6-(2,6-dichlorophenyl)-2-(2′,3′-dihydro-1′H-spiro[cyclopropane-1,4′-isoquinolin]-7′-ylamino)pyrido[2,3-d]pyrimidin-5(8H)-one]
24 | 0.3 | CN1CCc2cc(Nc3ncc4c(=O)c(-c5c(Cl)cccc5Cl)cn(C)c4n3)ccc2C1 [Example 54, 6-(2,6-dichlorophenyl)-8-methyl-2-[(2-methyl-1,2,3,4-tetrahydroisoquinolin-6-yl)amino]pyrido[2,3-d]pyrimidin-5(8H)-one]
